In patent US8552066B2, “Modified chalcone compounds as antimitotic agents” (Arizona Biomedical Research Commission, priority 2006, dated 2013):
Like-named read-outs stand apart in the source and are kept apart here.

Assays:
MIA PaCa-2 cells = experiment: Growth inhibition assay in pancreatic cancer cell lines (MTS); type: cell-based, human
Description: (§1) Growth inhibition assays for determination of GI50 values in pancreatic cancer cell lines were typically carried out essentially as follows. Compounds were individually tested at various concentrations against cancer cells grown in cell culture. The cell viability was determined by use of a standard assay that employs 3-(4,5-dimethylthiazol-2-yl)-5-(3-carboxymethoxyphenyl)-2-(4-sulfophenyl)-2H-tetrazolium, inner salt (MTS), and an electron coupling reagent, phenazine methosulfate (PMS). Absorbance at 490 nm (A490) was measured, and survival curves were obtained by comparison of A490 from treated cells with A490 from untreated cells (control). GI50 values were calculated from nonlinear curve fitting.

CCRF-CEM = experiment: NCI 60-cell-line cancer screen, growth inhibition (SRB); type: cell-based; settings: Leukemia CCRF-CEM, duplicate evaluations
Description: (§2) Cell growth inhibition studies whose results are reported above were carried out at the National Cancer Institute essentially as follows. Cells grown in RPMI 1640 medium containing 5% fetal bovine serum and 2 mM L-glutamine were inoculated into 96-well microtiter plates, which were incubated for 24 hours prior to addition of CMAC-1 at five concentrations. After 48 hours, cold trichloroacetic acid was added, and the plates were washed and air dried. The cells were stained with sulforhodamine B (SRB), and the absorbance was read on an automated plate reader at a wavelength of 515 nm. The percentage growth was calculated at each of the drug concentrations. The growth inhibition of 50% (GI50) was then calculated. The GI50 is the drug concentration resulting in a 50% reduction in the net protein increase (as measured by SRB staining) in control cells during the drug incubation.

EKVX = experiment: as above; type: cell-based; settings: NSCLC EKVX, duplicate evaluations
Description: as §2

HCT-15 = experiment: as above; type: cell-based; settings: Homo sapiens
Description: as §2

HL60-(TB) = experiment: as above; type: cell-based; settings: Homo sapiens
Description: as §2

HOP-62 = experiment: as above; type: cell-based
Description: as §2

HS 578T = experiment: as above; type: cell-based; settings: Breast HS 578T, duplicate evaluations
Description: as §2

HT29 = experiment: as above; type: cell-based
Description: as §2

K562 = experiment: as above; type: cell-based; settings: Homo sapiens
Description: as §2

M14 = experiment: as above; type: cell-based; settings: Homo sapiens; Melanoma M14; 48 hours; duplicate evaluations
Description: as §2

MALMI-3M = experiment: as above; type: cell-based; settings: Melanoma MALMI-3M, duplicate evaluations
Description: as §2

MCF7 = experiment: as above; type: cell-based
Description: as §2

MDA-MB-435 = experiment: as above; type: cell-based; settings: Homo sapiens
Description: as §2

NCI-H226 = experiment: as above; type: cell-based
Description: as §2

NCI-H322M = experiment: as above; type: cell-based; settings: NSCLC NCI-H322M, duplicate evaluations
Description: as §2

NCI-H460 = experiment: as above; type: cell-based
Description: as §2

NCI-H522 = experiment: as above; type: cell-based
Description: as §2

NCI/ADR-RES = experiment: as above; type: cell-based; settings: Breast NCI/ADR-RES, duplicate evaluations
Description: as §2

OVCAR-3 = experiment: as above; type: cell-based
Description: as §2

OVCAR-8 = experiment: as above; type: cell-based
Description: as §2

RPMI-8226 = experiment: as above; type: cell-based; settings: Homo sapiens
Description: as §2

SF-268 = experiment: as above; type: cell-based
Description: as §2

SF-295 = experiment: as above; type: cell-based
Description: as §2

SF-539 = experiment: as above; type: cell-based
Description: as §2

SNB-75 = experiment: as above; type: cell-based
Description: as §2

SR = experiment: as above; type: cell-based; settings: Homo sapiens
Description: as §2

SW-620 = experiment: as above; type: cell-based; settings: Homo sapiens
Description: as §2

U251 = experiment: as above; type: cell-based
Description: as §2

UACC-257 = experiment: as above; type: cell-based
Description: as §2

Melanoma = experiment: NCI 60-cell-line panel, summary by cancer type; type: cell-based
Description: as §2

[1] = tested on: individual cell lines of central nervous system (CNS) cancer; experiment: NCI 60-cell-line panel, summary by cancer type; type: cell-based
Description: as §2

[2] = tested on: individual cell lines of non-small-cell lung cancer (NSCLC); experiment: NCI 60-cell-line panel, summary by cancer type; type: cell-based
Description: as §2

[3] = tested on: individual cell lines of ovarian cancer; experiment: NCI 60-cell-line panel, summary by cancer type; type: cell-based
Description: as §2

[4] = tested on: individual cell lines of prostate cancer; experiment: NCI 60-cell-line panel, summary by cancer type; type: cell-based
Description: as §2

renal cancer = experiment: NCI 60-cell-line panel, summary by cancer type; type: cell-based
Description: as §2

[5] = tested on: BxPC-3 (pancreatic) cancer cells; experiment: Growth inhibition assay in pancreatic cancer cell lines (MTS); type: cell-based; settings: read-out: 50% growth inhibition (GI50)
Description: as §1

## C/C=C/C(=O)SCC(=O)OCc1ccc(/C=C/C(=O)c2cc(OC)c(OC)c(OC)c2)o1 [CMAF-1, 3-[5-(crotonylsulfanylmethylcarbonyloxymethyl)-2-furyl]-1-(3,4,5-trimethoxyphenyl)propenone]
MIA PaCa-2 cells; human pancreatic cancer cell (MIA PaCa-2) growth in culture, read-out: GI50
  GI50: 17000 nM

## C/C=C/C(=O)SCC(=O)Oc1cc(/C=C/C(=O)c2cc(OC)c(OC)c(OC)c2)ccc1OC [CMAC-1, 3-[3-(crotonylsulfanylmethylcarbonyloxy)-4-methoxyphenyl]-1-(3,4,5-trimethoxyphenyl)propenone]
CCRF-CEM; Homo sapiens, CCRF-CEM, 48 h
  GI50: 71.6 nM
CCRF-CEM; 48 hours
  GI50: 86 nM
EKVX; Homo sapiens, EKVX, 48 h
  GI50: 2090 nM
EKVX; 48 hours
  GI50: 1700 nM
HCT-15; Colon HCT-15, 48 hours, duplicate evaluations
  GI50: < 10 nM
HCT-15; colon HCT-15, Table 2
  GI50: < 10 nM
HL60-(TB); HL-60, Leukemia HL60-(TB), 48 hours, duplicate evaluations
  GI50: < 10 nM
HL60-(TB); leukemia HL-60, Table 2
  GI50: < 10 nM
HOP-62; Homo sapiens, HOP-62, 48 h, NSCLC HOP-62, duplicate evaluations
  GI50: 1230 nM
HOP-62; NSCLC HOP-62, 48 hours, duplicate evaluations
  GI50: 1000 nM
HS 578T; 48 hours
  GI50: 20.6 nM
HS 578T; Homo sapiens, Hs-578T, 48 h
  GI50: 40.4 nM
HT29; Colon HT29, 48 hours, duplicate evaluations
  GI50: 1680 nM
HT29; Homo sapiens, HT-29, 48 h, Colon HT29, duplicate evaluations
  GI50: 2870 nM
K562; K562, leukemia K-562, Table 2
  GI50: < 10 nM
K562; Leukemia K562, 48 hours, duplicate evaluations
  GI50: < 10 nM
M14
  GI50: 62.3 nM
MALMI-3M; 48 h
  GI50: 74.2 nM
MALMI-3M; 48 hours
  GI50: 44.7 nM
MCF7; Breast MCF7, 48 hours, duplicate evaluations
  GI50: 30 nM
MCF7; Homo sapiens, MCF7, 48 h, Breast MCF7, duplicate evaluations
  GI50: 28.5 nM
MDA-MB-435; Breast MDA-MB-435, 48 hours, duplicate evaluations
  GI50: < 10 nM
MDA-MB-435; breast cancer cells MDA-MB-435, Table 2
  GI50: < 10 nM
NCI-H226; Homo sapiens, NCI-H226, 48 h, NSCLC NCI-H226, duplicate evaluations
  GI50: 17200 nM
NCI-H226; NSCLC NCI-H226, 48 hours, duplicate evaluations
  GI50: 11200 nM
NCI-H322M; Homo sapiens, NCI-H322M, 48 h
  GI50: 85.1 nM
NCI-H322M; 48 hours
  GI50: 70.3 nM
NCI-H460; Homo sapiens, NCI-H460, 48 h, NSCLC NCI-H460, duplicate evaluations
  GI50: 52.4 nM
NCI-H460; NSCLC NCI-H460, 48 hours, duplicate evaluations
  GI50: 33.5 nM
NCI-H522; Homo sapiens, NCI-H522, 48 h, NSCLC NCI-H522, duplicate evaluations
  GI50: 22.4 nM
NCI-H522; NSCLC NCI-H522, 48 hours, duplicate evaluations
  GI50: 15.8 nM
NCI/ADR-RES; 48 hours
  GI50: 32.2 nM
NCI/ADR-RES; Homo sapiens, NCI/ADR-RES, 48 h
  GI50: 26.2 nM
OVCAR-3; Homo sapiens, OVCAR-3, 48 h, Ovarian OVCAR-3, duplicate evaluations
  GI50: 11.6 nM
OVCAR-3; Ovarian OVCAR-3, 48 hours, duplicate evaluations
  GI50: < 10 nM
OVCAR-8; Homo sapiens, OVCAR-8, 48 h, Ovarian OVCAR-8, duplicate evaluations
  GI50: 43.9 nM
OVCAR-8; Ovarian OVCAR-8, 48 hours, duplicate evaluations
  GI50: 47.1 nM
RPMI-8226; Leukemia RPMI-8226, 48 hours, duplicate evaluations
  GI50: < 10 nM
RPMI-8226; leukemia RPMI-8226, Table 2
  GI50: < 10 nM
SF-268; CNS SF-268, 48 hours, duplicate evaluations
  GI50: 63.8 nM
SF-268; Homo sapiens, SF-268, 48 h, CNS SF-268, duplicate evaluations
  GI50: 81.1 nM
SF-295; CNS SF-295, 48 hours, duplicate evaluations
  GI50: 231 nM
SF-295; Homo sapiens, SF-295, 48 h, CNS SF-295, duplicate evaluations
  GI50: 215 nM
SF-539; CNS SF-539, 48 hours, duplicate evaluations
  GI50: < 10 nM
SF-539; Homo sapiens, 48 h, CNS SF-539, duplicate evaluations
  GI50: 16.4 nM
SNB-75; CNS SNB-75, 48 hours, duplicate evaluations
  GI50: < 10 nM
SNB-75; Homo sapiens, SNB-75, 48 h, CNS SNB-75, duplicate evaluations
  GI50: 16.5 nM
SR; Leukemia SR, 48 hours, duplicate evaluations
  GI50: < 10 nM
SR; leukemia SR, Table 2
  GI50: < 10 nM
SW-620; Colon SW-620, 48 hours, duplicate evaluations
  GI50: < 10 nM
SW-620; colon SW-620, Table 2
  GI50: < 10 nM
U251; CNS U251, 48 hours, duplicate evaluations
  GI50: 52.1 nM
U251; Homo sapiens, U-251, 48 h, CNS U251, duplicate evaluations
  GI50: 42.7 nM
UACC-257; Homo sapiens, UACC-257, 48 h, Melanoma UACC-257, duplicate evaluations
  GI50: 3580 nM
UACC-257; Melanoma UACC-257, 48 hours, duplicate evaluations
  GI50: 4140 nM
MIA PaCa-2 cells; Homo sapiens, MIA PaCa-2 pancreatic cancer cells in culture, read-out: concentration required for 50% growth inhibition (GI50)
  GI50: 16 nM
Melanoma
  GI50: < 75 nM
[1]
  GI50: < 50 nM
[2]
  GI50: < 50 nM
[3]
  GI50: < 50 nM
[4]
  GI50: < 50 nM
Renal cancer
  GI50: < 150 nM
other
  melting point: 123 to 125.5 °C

## C=C(Cl)C(=O)Oc1cc(C=CC(=O)c2cc(OC)c(OC)c(OC)c2)ccc1OC [Entry 6, 3-[3-(2-Chloroacryloyloxy)-4-methoxyphenyl]-1-(3,4,5-trimethoxyphenyl)propenone]
MIA PaCa-2 cells; MIA PaCa-2 pancreatic cancer cells in culture, read-out: concentration required for 50% growth inhibition (GI50)
  GI50: 56 nM
[5]
  GI50: 4500 nM
